Laboratory results: patent US9040528B2, “Chemical compounds 542” (AstraZeneca AB, priority 2008, dated 2015)

biological target: Escherichia coli DNA gyrase A/B tetramer (Escherichia coli (strain K12), UniProt P0AES4+P0AES6); assay: DNA gyrase supercoiling activity fluorescence polarisation assay; assay type: biochemical; conditions: 5 nM enzyme, relaxed plasmid, 0.3 mM ATP, ambient temperature; read-out: E. coli DNA gyrase supercoiling IC50
How it was run: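 Supercoiling reactions quenched with 40 nM 5′-BODIPY-FL triplex-forming oligonucleotide probe in pH 3.5 NaCl/sodium acetate buffer; after 60 min, fluorescence anisotropy read (ex 485/em 535 nm). IC50 by nonlinear regression, normalised to 0.8% DMSO (100% activity) and 5 μM ciprofloxacin (0% activity).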

Compound | IC50
C[C@@H]1CN2c3c(cc4c(-n5ccnn5)noc4c3F)CC3(C(=O)NC(=O)NC3=O)[C@H]2[C@H](C)O1 (relative stereo) [Example 57, (2R,4S,4aS)-rel-11-fluoro-2,4-dimethyl-8-(1H-1,2,3-triazol-1-yl)-1,2,4,4a-tetrahydro-2′H,6H-spiro[1,4-oxazino[4,3-a][1,2]oxazolo[4,5-g]quinoline-5,5′-pyrimidine]-2′,4′,6′(1′H,3′H)-trione] | 1500 nM
C[C@@H]1CN2c3c(cc4c(C(=O)N5CCC(F)(F)C5)noc4c3F)CC3(C(=O)NC(=O)NC3=O)[C@H]2[C@H](C)O1 (racemic) [Example 158, (2R,4 S,4 aS)-rel-8-(3,3-difluoropyrrolidine-1-carbonyl)-11-fluoro-2,4-dimethyl-2,4,4a,6-tetrahydro-1H,1′H-spiro[isoxazolo[4,5-g][1,4]oxazino[4,3-a]quinoline-5,5′-pyrimidine]-2′,4′,6′(3′H)-trione] | 1400 nM
Cc1cnc(-c2noc3c(Cl)c4c(nc23)CC2(C(=O)NC(=O)NC2=O)[C@H]2[C@H](C)O[C@H](C)CN42)s1 (relative stereo) [Example 122, (2R,4S,4aS)-rel-11-Chloro-2,4-dimethyl-8-(5-methylthiazol-2-yl)-2,4,4a,6-tetrahydro-1H,1′H-spiro[isoxazolo[4,5-g][1,4]oxazino[4,3-a][1,5]naphthyridine-5,5′-pyrimidine]-2′,4′,6′(3′H)-trione] | 500 nM
Cc1cc(-c2noc3c(F)c4c(cc23)CC2(C(=O)NC(=O)NC2=O)[C@H]2[C@H](C)O[C@H](C)CN42)no1 (relative stereo) [Example 66, (2R,4S,4aS)-rel-11-fluoro-2,4-dimethyl-8-(5-methyl-1,2-oxazol-3-yl)-1,2,4,4a-tetrahydro-2′H,6H-spiro[1,4-oxazino[4,3-a][1,2]oxazolo[4,5-g]quinoline-5,5′-pyrimidine]-2′,4′,6′(1′H,3′H)-trione] | 400 nM
Cc1cc(C(F)F)nn1-c1noc2c(F)c3c(cc12)CC1(C(=O)NC(=O)NC1=O)[C@H]1[C@H](C)O[C@H](C)CN31 (relative stereo) [Example 30, (2R,4S,4aS)-rel-8-[3-(difluoromethyl)-5-methyl-1H-pyrazol-1-yl]-11-fluoro-2,4-dimethyl-1,2,4,4a-tetrahydro-2′H,6H-spiro[isoxazolo[4,5-g][1,4]oxazino[4,3-a]quinoline-5,5′-pyrimidine]-2′,4′,6′(1′H,3′H)-trione] | 5400 nM
C[C@@H]1CN2c3c(cc4c(-n5cc(-c6ccncn6)cn5)noc4c3F)CC3(C(=O)NC(=O)NC3=O)[C@H]2[C@H](C)O1 (relative stereo) [Example 34, (2R,4S,4aS)-rel-11-fluoro-2,4-dimethyl-8-[4-(pyrimidin-4-yl)-1H-pyrazol-1-yl]-1,2,4,4a-tetrahydro-2′H,6H-spiro[1,4-oxazino[4,3-a][1,2]oxazolo[4,5-g]quinoline-5,5′-pyrimidine]-2′,4′,6′(1′H,3′H)-trione] | 16300 nM
CCOC(=O)c1cnn(-c2noc3c(F)c4c(cc23)CC2(C(=O)NC(=O)NC2=O)[C@H]2[C@H](C)O[C@H](C)CN42)c1 (relative stereo) [Example 37, ethyl 1-[(2R,4S,4aS)-rel-11-fluoro-2,4-dimethyl-2′,4′,6′-trioxo-1,1′,2,3′,4,4′,4a,6′-octahydro-2′H,6H-spiro[1,4-oxazino[4,3-a][1,2]oxazolo[4,5-g]quinoline-5,5′-pyrimidin]-8-yl]-1H-pyrazole-4-carboxylate] | 8500 nM
C[C@@H]1CN2c3c(cc4c(C5CCOCC5)noc4c3F)CC3(C(=O)NC(=O)NC3=O)[C@H]2[C@H](C)O1 (relative stereo) [Example 100, (2R,4S,4aS)-rel-11-fluoro-2,4-dimethyl-8-(tetrahydro-2H-pyran-4-yl)-2,4,4a,6-tetrahydro-1H,1′H-spiro[isoxazolo[4,5-g][1,4]oxazino[4,3-a]quinoline-5,5′-pyrimidine]-2′,4′,6′(3′H)-trione] | 4100 nM
C[C@@H]1CN2c3c(cc4c(NCc5ccccc5)noc4c3F)CC3(C(=O)NC(=O)NC3=O)[C@H]2[C@H](C)O1 (racemic) [Example 9, (2R,4S,4 aS)-rel-8-(benzylamino)-11-fluoro-2,4-dimethyl-1,2,4,4a-tetrahydro-2′H,6H-spiro[1,4-oxazino[4,3-a][1,2]oxazolo[4,5-g]quinoline-5,5′-pyrimidine]-2′,4′,6′(1′H,3′H)-trione] | 1700 nM
CCN(CC)c1noc2c(F)c3c(cc12)CC1(C(=O)NC(=O)NC1=O)[C@H]1[C@H](C)O[C@H](C)CN31 (relative stereo) [Example 23, (2R,4S,4aS)-rel-8-(diethylamino)-11-fluoro-2,4-dimethyl-1,2,4,4a-tetrahydro-2′H,6H-spiro[isoxazolo[4,5-g][1,4]oxazino[4,3-a]quinoline-5,5′-pyrimidine]-2′,4′,6′(1′H,3′H)-trione] | 4300 nM
C[C@@H]1CN2c3c(cc4c(NCc5c[nH]cn5)noc4c3F)CC3(C(=O)NC(=O)NC3=O)[C@H]2[C@H](C)O1 (relative stereo) [Example 11, (2R,4S,4aS)-rel-11-fluoro-8-[(1H-imidazol-4-ylmethyl)amino]-2,4-dimethyl-1,2,4,4a-tetrahydro-2′H,6H-spiro[1,4-oxazino[4,3-a][1,2]oxazolo[4,5-g]quinoline-5,5′-pyrimidine]-2′,4′,6′(1′H,3′H)-trione] | 800 nM
C[C@@H]1CN2c3c(cc4c(-n5cncn5)noc4c3F)CC3(C(=O)NC(=O)NC3=O)[C@H]2[C@H](C)O1 [Example 53(a), (2R,4 S,4 aS)-11-fluoro-2,4-dimethyl-8-(1H-1,2,4-triazol-1-yl)-2,4,4a,6-tetrahydro-1H,1′H-spiro[isoxazolo[4,5-g][1,4]oxazino[4,3-a]quinoline-5,5′-pyrimidine]-2′,4′,6′(3′H)-trione] | 200 nM
CSc1noc2c(F)c3c(cc12)CC1(C(=O)NC(=O)NC1=O)[C@H]1[C@H](C)O[C@H](C)CN31 (relative stereo) [Example 62, (2R,4S,4aS)-rel-11-fluoro-2,4-dimethyl-8-(methylsulfanyl)-1,2,4,4a-tetrahydro-2′H,6H-spiro[1,4-oxazino[4,3-a][1,2]oxazolo[4,5-g]quinoline-5,5′-pyrimidine]-2′,4′,6′(1′H,3′H)-trione] | 900 nM
C[C@@H]1CN2c3c(cc4c(N5CCCCCC5)noc4c3F)CC3(C(=O)NC(=O)NC3=O)[C@H]2[C@H](C)O1 (relative stereo) [Example 26, (2R,4S,4aS)-rel-8-(azepan-1-yl)-11-fluoro-2,4-dimethyl-1,2,4,4a-tetrahydro-2′H,6H-spiro[isoxazolo[4,5-g][1,4]oxazino[4,3-a]quinoline-5,5′-pyrimidine]-2′,4′,6′(1′H,3′H)-trione] | 3700 nM
COc1nccc(-c2noc3c(F)c4c(cc23)CC2(C(=O)NC(=O)NC2=O)[C@H]2[C@H](C)O[C@H](C)CN42)n1 [Example 172, (2R,4S,4aS)-11-fluoro-8-(2-methoxypyrimidin-4-yl)-2,4-dimethyl-2,4,4a,6-tetrahydro-1H,1′H-spiro[isoxazolo[4,5-g][1,4]oxazino[4,3-a]quinoline-5,5′-pyrimidine]-2′,4′,6′(3′H)-trione] | 900 nM
C[C@@H]1CN2c3c(cc4c(C#N)noc4c3F)CC3(C(=O)NC(=O)NC3=O)[C@H]2[C@H](C)O1 (relative stereo) [Example 183, (2R,4S,4aS)-rel-11-fluoro-2,4-dimethyl-2′,4′,6′-trioxo-1,1′,2,3′,4,4′,4a,6′-octahydro-2′H,6H-spiro[1,4-oxazino[4,3-a][1,2]oxazolo[4,5-g]quinoline-5,5′-pyrimidine]-8-carbonitrile] | 12000 nM
C[C@@H]1CN2c3c(cc4c(-c5cncc(N(C)C)n5)noc4c3F)CC3(C(=O)NC(=O)NC3=O)[C@H]2[C@H](C)O1 (relative stereo) [Example 177, (2R,4S,4aS)-rel-8-(6-(dimethylamino)pyrazin-2-yl)-11-fluoro-2,4-dimethyl-2,4,4a,6-tetrahydro-1H,1′H-spiro[isoxazolo[4,5-g][1,4]oxazino[4,3-a]quinoline-5,5′-pyrimidine]-2′,4′,6′(3′H)-trione] | 5000 nM
C[C@@H]1CN2c3c(cc4c(-c5ncccn5)noc4c3Cl)CC3(C(=O)NC(=O)NC3=O)[C@H]2[C@H](C)O1 (racemic) [Example 42, (2R,4S,4 aS)-rel-11-chloro-2,4-dimethyl-8-(pyrimidin-2-yl)-1,2,4,4a-tetrahydro-2′H,6H-spiro[1,4-oxazino[4,3-a][1,2]oxazolo[4,5-g]quinoline-5,5′-pyrimidine]-2′,4′,6′(1′H,3′H)-trione] | 1200 nM
CSc1cnc(-c2noc3c(F)c4c(cc23)CC2(C(=O)NC(=O)NC2=O)[C@H]2[C@H](C)O[C@H](C)CN42)cn1 (relative stereo) [Example 80, (2R,4S,4aS)-rel-11-fluoro-2,4-dimethyl-8-(5-(methylthio)pyrazin-2-yl)-2,4,4a,6-tetrahydro-1H,1′H-spiro[isoxazolo[4,5-g][1,4]oxazino[4,3-a]quinoline-5,5′-pyrimidine]-2′,4′,6′(3′H)-trione] | 1700 nM
C[C@@H]1CN2c3c(nc4c(-c5cccnc5)noc4c3Cl)CC3(C(=O)NC(=O)NC3=O)[C@H]2[C@H](C)O1 (relative stereo) [Example 109, (2R,4S,4aS)-rel-11-chloro-2,4-dimethyl-8-(pyridyin-3-yl)-2,4,4a,6-tetrahydro-1H,1′H-spiro[isoxazolo[4,5-g][1,4]oxazino[4,3-a][1,5]naphthyridine-5,5′-pyrimidine]-2′,4′,6′(3′H)-trione] | 500 nM
C[C@@H]1CN2c3c(cc4c(-c5ccnc(C#N)n5)noc4c3F)CC3(C(=O)NC(=O)NC3=O)[C@H]2[C@H](C)O1 [Example 173, 4-((2R,4S,4aS)-11-fluoro-2,4-dimethyl-2′,4′,6′-trioxo-2,2′,3′,4,4a,4′,6,6′-octahydro-1H,1′H-spiro[isoxazolo[4,5-g][1,4]oxazino[4,3-a]quinoline-5,5′-pyrimidine]-8-yl)pyrimidine-2-carbonitrile] | 100 nM
